“Also recorded” adds a separate entry of the source. Marks after values point to notes of the source that are not given here.
Legend:
[1] = test system: MCF-7 human mammary tumor cells; experiment: inhibition of growth of MCF-7 cells (tritiated thymidine incorporation); settings: for IC30 for inhibition of growth: MCF-7, 24 hours drug exposure; for fold increase in the cancer growth inhibition potency of paclitaxel: MCF-7, anthracycline at IC30 concentration
Experimental: (§1) The inhibitory effects of doxorubicin (I), 13-deoxydoxorubicin (II), 5-imino-13-deoxydoxorubicin (III), daunorubicin (IV), 13-deoxydaunorubicin (V), and 5-imino-13-deoxydaunorubicin (VI) on the growth of MCF-7 human mammary tumor cells and P388 murine leukemia cells are measured in vitro. The MCF-7 and P388 cell lines used for these studies are cultured and maintained utilizing the protocol from the American Type Culture Collection (ATCC) protocols. MCF-7 media was EMEM (Eagle Minimum
(§2) Essential Medium; ATCC) and P388 media is Dulbecco's modified Eagle's medium (DMEM, ATCC). Working media for MCF-7 and P388 is made by the addition of 50 ml FBS (fetal bovine serum, MCF-7) or 50 ml horse serum (ATCC, P388) to 450 ml EMEM media (MCF-7) or DMEM (P388). 4.5 g/L glucose (Sigma) is also added to the DMEM (P388). Five ml Penicillin/Streptomycin (P/S, Gibco) is added to the MCF-7 and P388 working media. Cells are grown at 37° C. in 5% CO2 for 1 week, and 25 ml fresh media is added. Cells are passaged when they reach a density of 1-2×10^6 cells/ml by transferring to a new flask containing fresh media.
(§3) Using sterile technique, MCF-7 cells are harvested from the T-75 flasks by removing and discarding the culture medium. 5 ml of 0.25% Trypsin-EDTA solution (Sigma) is added to each flask to de-attach the cells. The flask is placed in the incubator for 5-10 minutes to facilitate dispersal. 10 ml of complete growth medium is added, directly decanted into 50 ml tubes then centrifuged for 10 minutes at 200×g. P388 cells are harvested by directly decanting media into 50 ml tubes and centrifuging for 10 minutes at 200×g. The pellet (MCF-7 and P388) is resuspended in 5 ml and the cells dispersed by expelling gently through an 18 g needle fitted to a syringe. The cells are counted using a hemocytometer and diluted with media to 150,000 cells/ml. The diluted cells are pipetted into 96-well plates at a concentration of 15,000 cells/well in 100 μl. The plates are covered and incubated at 37° C. for 48 hours.
(§4) Dilutions of the anthracyclines and paclitaxel are made up in cell-specific serum-free media. The drugs at appropriate concentrations are added to all wells in 50 μl aliquots and the cells are grown in the presence of the drugs (anthracyclines/paclitaxel) for 24 hours. Tritiated thymidine (ICN) is diluted in serum-free cell-specific media to a concentration of 1 μCi/50 μl. All wells used for analysis are spiked with 50 μl aliquots of media containing tritiated thymidine. Following a 4-hour exposure to isotope, tritiated thymidine incorporation into DNA is measured by hypotonic lysis of cells with deionized water and collection of cellular contents onto Whatman GF-C filters using a Brandel cell harvester. Prior to harvesting MCF-7 cells, the media is aspirated, 150 μL of 0.25% Trypsin-EDTA is added to each well to de-attach the cells. Filters are allowed to dry, placed into 7 ml scintillation vials containing 5 ml scintillation cocktail and counted in a scintillation counter. In preliminary experiments, the concentrations of anthracyclines that would produce a 30% inhibition of growth (inhibitory concentration 30, IC30) on MCF-7 cells and 10% inhibition of growth (IC10) on P388 cells are determined.

[2] = cardiotoxicity evaluation in chronically treated rabbits (LVFS, hematocrit, isolated atria dF/dt, histopathology); settings: rabbit; for cardiotoxicity with chronic dosing / HCT % (hematocrit), Post / Histopathology Score / dF/dt (myocardial contractility of isolated atria) / FS % (left ventricular fractional shortening), Post: in vivo; for HCT % (hematocrit), Post / FS % (left ventricular fractional shortening), Post: iv
Experimental: Twenty-four age matched New Zealand white rabbits weighing 3.0 kg are randomized into four groups (N=6 rabbits/group). […] Doses of drug or vehicle are administered iv into an ear vein two times per week. Serum and blood samples are obtained weekly and M-mode echocardiology performed weekly or every other week to obtain left ventricular fractional shortening (LVFS) to assess cardiac function. Food consumption is measured daily and body weight is measured weekly. Control rabbits are fed the same amount of food as doxorubicin treated rabbits (pair fed). At sacrifice, apex and left ventricular free wall samples are obtained and preserved in 10% buffered formalin for histologic scoring and analysis via light microscopy. Left ventricular tissue samples are also obtained to assess cardiac levels of anthracyclines and metabolites.
At sacrifice, the heart is removed and two types of tissue are sampled from the heart, ventricular apex and left ventricular free wall, and stored in 10% formalin. Each tissue is prepared for three different stains: H&E, toluidine blue, and trichcrome. The tissues are scored (blind) using a modification of the Billingham scale. The scoring scale is from 0-4 with 0=<10% of cells or tissue lesioned, 1 to 10%-19% of cells or tissue lesioned, 2 to 20%-29% of cells or tissue lesioned, 3 to 30%-39% of cells or tissue lesioned, 4 to 40% or more cells or tissue lesioned. The ventricular apex and the left ventricular free wall are analyzed separately. Each receives a score for mononuclear infiltration, fibrosis, and cytoplasmic vacuolization. Thus, each rabbit has six scores, three for the apex (mononuclear infiltration, fibrosis, and cytoplasmic vacuolization) and three for the left ventricular free wall (mononuclear infiltration, fibrosis, and cytoplasmic vacuolization). Each score is obtained by looking at all three stains.
Also at sacrifice, left atria are isolated, divided in half and both halves studied to assess cardiac function in vitro in a tissue bath where afterload and preload remain constant throughout the study. Cardiac contractility is measured as the maximum rate of force development (dF/dt) in response to contractions induced by electrical stimulation via punctuate electrodes located at the base of each muscle preparation.

[3] = test system: P388 murine leukemia cells; experiment: inhibition of growth of P388 cells in vitro (tritiated thymidine incorporation); settings: for IC10 for inhibition of growth: P388, 24 hours drug exposure
Experimental: as §1, §2, §3, §4

H9c2 cells = experiment: growth inhibition of non-cancerous H9c2 cells; format: cell-based; settings: Rattus norvegicus
[4] = optimum antitumor dose relative to doxorubicin; settings: in vivo
P388 murine leukemia = experiment: in vivo anticancer activity in murine leukemia model, CD2F1 mice injected with P388 cells; settings: for Median survival time: 1 million P388 cells ip; for T/C % (median survival time of treated mice divided by that of control mice x 100): P388 ip
Experimental: Groups of CD2F1 mice are injected intraperitoneally (ip) with 1 million P388 cells. There were 10 mice per group. In the doxorubicin group 0.8 mg/kg is administered ip consecutively for 9 days on days 1-9 of the study. […] A control group is injected with vehicle. Median survival times are calculated for each group. Activity of a compound is expressed as the amount of prolonged survival (median survival of the treated group divided by the median survival time of the control group, multiplied by 100, T/C %).

breast cancer = breast cancer patients; cited from earlier work
[5] = H9c2, H9c2, anthracycline alone
[6] = H9c2, H9c2, in the presence of weak growth inhibitory concentrations of paclitaxel (IC10)

| SMILES | IC30 for inhibition of growth [1] [nM] | fold increase in the cancer growth inhibition potency of paclitaxel [1] [fold] | cardiotoxicity with chronic dosing [2] | HCT % (hematocrit), Post [2] | IC10 for inhibition of growth [3] [nM] | Median survival time (P388 murine leukemia; drug ip on days 1-9, n = 10) [days] | T/C % (median survival time of treated mice divided by that of control mice x 100) (P388 murine leukemia; drug ip on days 1-9, n = 10) | further results |
| --- | --- | --- | --- | --- | --- | --- | --- | --- |
| COc1cccc2c1C(=O)c1c(O)c3c(c(O)c1C2=O)C[C@@](O)(CCO)C[C@@H]3OC1CC(N)C(O)C(C)O1 (stereo partly drawn) [Compound II, 13-deoxydoxorubicin] | 450 | 20 | devoid of cardiotoxicity | 23.8* % | 1100 | 27 | 142* % | IC50 (H9c2 cells; [5]): 700 nM; IC50 (H9c2 cells; [6]): 400 nM; optimum antitumor dose relative to the dose of doxorubicin [4]: approximately twice; Median survival time (P388 murine leukemia; drug ip on days 1-9, n = 10, listed as 13-deoxydoxorubicin): significant increase in median survival time |
| CC(=O)O[C@H]1C(=O)[C@@]2(C)[C@H]([C@H](OC(=O)c3ccccc3)[C@]3(O)C[C@H](OC(=O)[C@H](O)[C@@H](NC(=O)c4ccccc4)c4ccccc4)C(C)=C1C3(C)C)[C@]1(OC(C)=O)CO[C@@H]1C[C@@H]2O [Paclitaxel, paclitaxel] | – | – | – | – | – | – | – | growth inhibitory effect ([1]; MCF7, paclitaxel alone, 1 to 50 nM): no growth inhibitory effect; IC50 of paclitaxel for inhibition of growth ([3]; P388, paclitaxel alone or in the presence of the anthracycline at its IC10 concentration, mean ± standard error, n = 3): no inhibitory activity; also recorded: Inactive; growth inhibitory effect ([3]; P388, paclitaxel alone, concentrations up to 2000 nM): no growth inhibitory effect; anticancer response rate (breast cancer): 32-62% |
| CC[C@]1(O)Cc2c(O)c3c(c(O)c2[C@@H](OC2CC(N)C(O)C(C)O2)C1)C(=N)c1c(OC)cccc1C3=O (stereo partly drawn) [Compound VI] | 875 | – | – | – | 1700 | – | – | – |
| COc1cccc2c1C(=O)c1c(O)c3c(c(O)c1C2=O)C[C@@](O)(C(C)=O)C[C@@H]3OC1CC(N)C(O)C(C)O1 (stereo partly drawn) [Daunorubicin (IV), daunorubicin] | 750 | – | – | – | 300 | – | – | – |
| COc1cccc2c1C(=O)c1c(O)c3c(c(O)c1C2=O)C[C@@](O)(C(=O)CO)C[C@@H]3OC1CC(N)C(O)C(C)O1 (stereo partly drawn) [Doxorubicin (I), doxorubicin] | 100 | 2.8 | profound cardiotoxicity | 27.5* % | 250 | 28 | 147* % | Histopathology Score ([2]; New Zealand white): 1.81*,^+; dF/dt (myocardial contractility of isolated atria) ([2]; New Zealand white): 15.1*,^+ gms/sec; FS % (left ventricular fractional shortening), Post ([2]; New Zealand white): 27.4*,^+ %; cumulative cardiotoxic dose ([2]; 1.25 mg/kg twice/week for 7 weeks): 17.5 mg/kg; Histopathology Score [2]: significantly increased; dF/dt (myocardial contractility of isolated atria) [2]: significantly reduced; FS % (left ventricular fractional shortening), Post [2]: statistically significant decrease; IC50 (H9c2 cells; H9c2, anthracycline alone): 210 nM; anticancer response rate (breast cancer): 35-50%; T/C % (median survival time of treated mice divided by that of control mice x 100) (P388 murine leukemia; drug ip on days 1-9, n = 10, listed as Doxorubicin): 147% |
| COc1cccc2c1C(=N)c1c(O)c3c(c(O)c1C2=O)C[C@@](O)(CCO)C[C@@H]3OC1CC(N)C(O)C(C)O1 (stereo partly drawn) [Compound III] | 750 | 220 | devoid of cardiotoxicity | 33.3* % | 3500 | 27 | 142* % | IC50 (H9c2 cells; [5]): 1500 nM; IC50 (H9c2 cells; [6]): 210 nM; optimum antitumor dose relative to the dose of doxorubicin [4]: up to 7 times |
| CC[C@]1(O)Cc2c(O)c3c(c(O)c2[C@@H](OC2CC(N)C(O)C(C)O2)C1)C(=O)c1c(OC)cccc1C3=O (stereo partly drawn) [Compound V, 13-deoxydaunorubicin] | 645 | – | – | – | 700 | – | – | – |
